# Results reported in patent US20090011951A1, “Method of Gene Screening With Yeast Having Ergosterol Synthase Undergoing Inducible Expression” (priority 2004, published 2009).
# What was measured:
# [1] = system: yeast (Saccharomyces cerevisiae) that inducibly expresses ERG6; test: Cycloheximide sensitivity of the strain that inducibly expresses ERG6; assay type: cell-based; conditions: 30° C., 2 days, various concentrations
# Description: The following experiments were performed to confirm a difference in drug resistance of yeast that inducibly expresses ergosterol depending on presence or absence of induction.
# It was confirmed that the drug sensitivity was increased by turning off the expression of ergosterol.
# [2] = system: yeast; conditions: known action; cited from earlier work
Compound,cycloheximide sensitivity ([1]; galactose medium (ERG6 induced)),cycloheximide sensitivity ([1]; glucose medium (ERG6 repressed)),growth inhibitory action against yeast [2]
C[C@@H]1C[C@@H]([C@H](O)CC2CC(=O)NC(=O)C2)C(=O)[C@@H](C)C1 [cycloheximide],equal to that of a pdr1 pdr3-disrupted stain (ERG6 strain),equal to that of a pdr1 pdr3 erg6-disrupted strain,
CN(Cc1cnc2nc(N)nc(N)c2n1)c1ccc(C(=O)N[C@@H](CCC(=O)O)C(=O)O)cc1 [Methotrexate],,,has a growth inhibitory action against yeast
